Data on 14 compounds can be found in patent publication US20070264363A1, “Molluscicidal and Anti-Barnacle Compounds” (priority 2003, published 2007).

Molecules are shown by their SMILES. “And” between values parts separate entries of the source, which are not always exact repeats. Identical values can stand only once.

Data set [1] deals with D. reticulatum slugs. Description: Leaf disc assay (no choice-feeding bioassay on lettuce leaf discs). In kind it is in vivo. The following applies: for amount of lettuce leaf consumed was reduced: solubilisation in aqueous tween 80 (0.5%). As for the experimental part:
Adult D. reticulatum were collected from nearby fields and maintained in plastic trays lined with moist, unbleached, absorbent paper They were housed in the dark and at a constant temperature of 10°±1° C. Slugs were regularly fed on a mixture of iceberg lettuce and carrots. Slugs, with a weight 300-600 mg, were pre-starved for 24 hours and maintained at a constant temperature of 15°±1° C. prior to testing.
The technique described here is a no choice-feeding bioassay using circular discs prepared from lettuce leaves. Selected terpenes were tested against D. reticulatum slugs and evaluated for their repellent/antifeedant and molluscicidal properties.
Lettuce leaf discs (1.4 cm^2) were placed in petri dishes lined with water saturated filter paper ([…] diameter). A known concentration of terpene oil, solubilised in the appropriate media, was prepared and a fixed volume (50 μl) added by pipette, onto individual lettuce leaf discs. Any residual solvent was left to evaporate for a minimum time of 30 iminutes.
Slugs, previously starved for 24 hours, were introduced to the petri dishes and placed in an environmentally controlled chamber (15° C.: 12 hours day, 15° C.: 12 hours night) for 24 hours.
The amount of leaf disc damaged (eaten) was quantified by comparing digital photographs of treated leaf discs with untreated (control) leaf discs, using photographic computer software. The experiment was replicated 20 times for each terpene.
To compare the change in feeding behaviour for different treatments, the leaf damage data was corrected for the control, using the repellency index equation below. [formula]
The antifeedant effect of various media was determined by comparison to untreated leaf discs. A positive R I value indicates a reduction in feeding (antifeedant/repellent) whereas a negative value indicates an increase in feeding behaviour (phagostimulant). Corrections for mortality were done the Abbotts formula (Abbott, 1925). [formula] Bioassay Assay Results: Leaf Disc Assay

Another data set deals with eggs of D. reticulatum. The following applies: applied at a rate of 4.6 kg/ha; cited from earlier work.
In data set [2] the test system is field slug, D. reticulatum. The following applies: in vivo; cited from earlier work.
Data set [3] relates to D. reticulatum slugs. The data set is described as follows: Spray trial (controlled temperature units) monitored over 7 days (Example 9). The data set is classed as in vivo. The following applies: for % Leaf Damage: 5% oil emulsion spray; for % Mortality: 5% spray. The source says: The same spray trial as in the previous examples was repeated and leaf damage monitored for 7 days.
Spray Trial (Controlled Temperature Units) Monitoring Leaf Damage Over 7 Days (D. reticulatum)
Spray Trial (Controlled Temperature Units) Monitoring Mortality Over 7 Days (D. reticitlatum)

The next data set relates to D. reticulatum. The data set is described as follows: Spray trial, lettuce leaves on peat soil (Example 7). In kind it is in vivo, Deroceras reticulatum. The following applies: 3% in water, 24 hours. As for the experimental part: To evaluate the efficacy of trans-β-ocimene emulsions using peat substrates lettuce leaves were sprayed with 12 ml of an aqueous ocimene emulsion (3%). Once sprayed the leaves were placed in plastic trays containing peat soil and left for 30 minutes to remove the excess liquid drops. After this time period two adult slugs, previously starved for 24 hours, were added to each plastic tray and left for 24 hours.
A control (water) was treated similarly. Four replicates were prepared for each treatment.
Repellency indices were calculated as described for the leaf disc bioassay.

Data set [4] relates to garden snail H. aspersa. The data set is described as follows: Spray trial with ocimene and bisabolol formulations (Example 8). In kind it is in vivo. The note with it: for Repellency Index: RI relative to water. From the text: Example 7 was repeated wherein the lettuce leaves were sprayed with 5% trans-β-ocimene in Tween 20 and the anti-feedant properties tested on the garden snail H. aspersa.
5 and 10% Ocimene and Bisabolol (H. aspersa)

For data set [5], the system named is cyprid larvae of the marine barnacle Balanus amphitrite. The data set is described as follows: Barnacle settlement in multi-welled plates, extract evaporated to dryness. The data set is classed as in vivo. The following applies: top two doses, 24 hrs. On the procedure:
The settlement of the barnacle Balanus Amphitrite was tested in multi-welled plates in the laboratory. Myrrh and scented Myrrh were extracted in ethanol and 2 ml aliquots from a range of concentrations (50% v/v to 1.5% v/v) were evaporated to dryness in each well of a multi welled plate. Ethanolic trans-β-Ocimene a component of scented Myrrh was also applied in the manner over a range of concentrations (50% v/v to 1.5-% v/v). After evaporation saltwater containing active cyprid larvae was introduced to each well and their settlement and activity measured after 24 hrs.

The test system of data set [6] is Balanus amphitrite day 3 cyprids. The data set is described as follows: Barnacle settlement repeated, cyprids incubated in 10^−5-10^−9M. The data set is classed as in vivo. The note with it: after 24 hr. On the procedure: The barnacle settlement experiments were repeated; however, this time 10 Balanus amphitrite day 3 cyprids were incubated in varying concentrations (10^−5-10^−9M) of trans-β-ocimene at 28° C. in dark conditions. Each concentration was replicated four times, with a control run. The number of cyprids that had settled, still active, floating on the surface meniscus or dead was counted after 24 and 48 hr incubations. Results are expressed as a % of the total cyprid number in each well minus floating cyprids, as these were unable to settle. Values are expressed as mean ±SEM. The amount of settlement at each concentration was compared to the control settlement using an unpaired t-test.

For data set [7], the system named is garden snail H. aspersa. The data set is described as follows: Spray trial with ocimene and bisabolol formulations (Example 8). The data set is classed as in vivo. The note with it: 1% in aq. Tween 20 (1%).

Consider `CC(C)=CCC/C(C)=C/CC/C(C)=C\CO` [cis, trans farnesol], for which, in the data set on D. reticulatum slugs [1] (0.95% in ethanol), the “Corrected Mortality” value was found to be 0% and the “Repellency Index” value is reported as 77%.
Consider `C=C1/C=C/C(C(C)C)CC/C(C)=C/CC1` (stereo not shown) [Germacrene D], for which, in the data set on D. reticulatum slugs [1] (0.4% in ethanol), the “Corrected Mortality” value was found to be 0% and the “Repellency Index” value is listed as 77%.
For `C=C(C)C1CC=C(C)C(=O)C1` (stereo not shown) [Carvone, carvone], the “time to induce death” value in the data set on eggs of D. reticulatum is reported as 2 days. In data set [2], the molluscicidal activity entry is “potent molluscicides”.
As for `CC(C)[C@@H]1CC[C@@H](C)CC1=O` [menthone], in data set [2], the molluscicidal activity entry was “potent molluscicides”.
With `C=C/C(C)=C\CC=C(C)C` [cis-β-Ocimene], in the data set with D. reticulatum slugs [1] (0.35% in Aq. Tween 80 (0.2%)), the “Repellency Index” value is on record as 84%. For the same compound, in the data set on D. reticulatum slugs [1] (in vivo), the “Corrected Mortality” value is listed as 15% and the mortalities entry is recorded as “Low”. Moreover, the “amount of lettuce leaf consumed was reduced” value in the data set on D. reticulatum slugs [1] was found to be 84%.
As to `CC1=CCC(C(C)(C)O)CC1` (stereo not drawn) [α-terpineol], in data set [2], the mollusc repellent activity entry is reported as “effective mollusc repellents”.
For `C=C/C(C)=C/CC=C(C)C` [trans-β-Ocimene], the “% Leaf Damage” value with D. reticulatum slugs [3] (Day 1), with D. reticulatum slugs [3] (Day 2), in the data set on D. reticulatum slugs [3] (Day 3), in the data set with D. reticulatum slugs [3] (Day 4), in the data set on D. reticulatum slugs [3] (Day 5) and in the data set on D. reticulatum slugs [3] (Day 6) was 0% each time. Besides, the “% Leaf Damage” value in the data set with D. reticulatum slugs [3] (Day 7) is given as 0%. Further, the “% Mortality” value with D. reticulatum slugs [3] (Day 1) is recorded as 67%; in the data set on D. reticulatum slugs [3] (Day 2), 80 ± 12%; in the data set on D. reticulatum slugs [3] (Day 3) it was 87 ± 7%; in the data set with D. reticulatum slugs [3] (Day 4) it was 87 ± 7%; in the data set with D. reticulatum slugs [3] (Day 5), 93 ± 7%; with D. reticulatum slugs [3] (Day 6), 93 ± 7%. Also, the “% Mortality” value in the data set with D. reticulatum slugs [3] (Day 7) is 93 ± 7%. For the same compound, in the data set on D. reticulatum (12 ml spray, single replicates 1-4), the Leaf damage was 18.69% and 9.33% and 0.00% and 0.99%. For the same compound, the “Repellency Indices” value is reported as 76.5% in the data set with D. reticulatum and 77% in the data set with D. reticulatum (listed as trans-β-ocimene). Besides, the “Mean Leaf damage” value with D. reticulatum (four replicates) is given as 7.25%. Besides, the mortality result in the data set with D. reticulatum (peat containers) is recorded as “No mortality”. Moreover, the “% Leaf Damage ± SEM” value in the data set with garden snail H. aspersa [4] (5% in Water) is listed as 79 ± 9 NS %; in the data set on garden snail H. aspersa [4] (5% in aq. Synperonic (0.025%)), 2 ± 2 %; with garden snail H. aspersa [4] (5% in aq. Synperonic (5%)), 0 ± 0 %; in the data set with garden snail H. aspersa [4] (5% in aq. Tween 20 (5%)), 0 ± 0 %; in the data set with garden snail H. aspersa [4] (10% in Water), 0 ± 0 %. For the same compound, the “% Mortality ± SEM” value in the data set with garden snail H. aspersa [4] (5% in Water) came to 0%; in the data set on garden snail H. aspersa [4] (5% in aq. Synperonic (0.025%)) it was 17 ± 7 %; with garden snail H. aspersa [4] (5% in aq. Synperonic (5%)), 0%; in the data set with garden snail H. aspersa [4] (5% in aq. Tween 20 (5%)) it was 0%; with garden snail H. aspersa [4] (10% in Water) it was 5%. In addition, the “Repellency Index” value in the data set with garden snail H. aspersa [4] (5% in Water) is recorded as 21; in the data set with garden snail H. aspersa [4] (5% in aq. Synperonic (0.025%)), 98; in the data set with garden snail H. aspersa [4] (5% in aq. Synperonic (5%)), 100; with garden snail H. aspersa [4] (5% in aq. Tween 20 (5%)) it was 100; with garden snail H. aspersa [4] (10% in Water), 100; in the data set with D. reticulatum slugs [1] (0.1% in ethanol), 5%. The “Repellency Index” value with D. reticulatum slugs [1] (0.22% in Aq. Dmso (10%)) came to 2%; in the data set with D. reticulatum slugs [1] (0.45% in Aq. Dmso (2.5%)), 91%; in the data set with D. reticulatum slugs [1] (0.45% in Aq. Dmso (10%)) it was 90%; in the data set with D. reticulatum slugs [1] (0.45% in Aq. Tween 80 (0.2%)), 91%; in the data set with D. reticulatum slugs [1] (0.45% in Aq. Tween 80 (0.5%)) it was 73%; with D. reticulatum slugs [1] (0.45% in Water), 100%. The “Repellency Index” value in the data set on D. reticulatum slugs [1] (0.45% in ethanol, 24 hours) is on record as 35%; in the data set on D. reticulatum slugs [1] (0.90% in Aq. Dmso (10%)), 92%; in the data set with D. reticulatum slugs [1] (0.9% in ethanol), 95%; in the data set on D. reticulatum slugs [1] (2.7% in Aq. Dmso (10%)), 100%. The “Corrected Mortality” value is reported as 0% with D. reticulatum slugs [1] (0.1% in ethanol); 0% in the data set with D. reticulatum slugs [1] (0.22% in Aq. Dmso (10%)); 20% with D. reticulatum slugs [1] (0.45% in Aq. Dmso (2.5%)); 70% in the data set on D. reticulatum slugs [1] (0.45% in Aq. Dmso (10%)); 20% with D. reticulatum slugs [1] (0.45% in Aq. Tween 80 (0.2%)); 10% in the data set with D. reticulatum slugs [1] (0.45% in Aq. Tween 80 (0.5%)). In addition, the “Corrected Mortality” value in the data set on D. reticulatum slugs [1] (0.45% in Water) is listed as 90%; in the data set on D. reticulatum slugs [1] (0.45% in ethanol, 24 hours), 0%; in the data set on D. reticulatum slugs [1] (0.90% in Aq. Dmso (10%)) it was 75%; with D. reticulatum slugs [1] (0.9% in ethanol), 5%; with D. reticulatum slugs [1] (2.7% in Aq. Dmso (10%)) it was 95%. Moreover, the mortalities entry with D. reticulatum slugs [1] (Examples 2 and 4, aqueous tween 80) is given as “Low”. In addition, in the data set on D. reticulatum slugs [1] (pure oil, immediately on contact), the slug mortality was 100%. In the data set on D. reticulatum slugs [1], the “amount of lettuce leaf consumed was reduced” value is given as 73%. Moreover, the state of larvae entry in [5] was “all floating on the surface but were ‘mutated’”. Further, the inhibition of settlement entry in data set [6] (10^−5-10^−9M, 28° C., dark) is “inhibition of settlement in a reverse dose-dependent manner”. Further, the “settlement compared to the control (unpaired t-test)” value in data set [6] (lowest concentration (10^−9M)) was “statistically different from the control”.
As for `Cc1ccc(C(C)C)c(O)c1` [thymol], the mollusc repellent activity entry in data set [2] is recorded as “effective mollusc repellents”.
Turning to `C=C/C(C)=C/C/C=C(\C)CCC=C(C)C` [α-farnesene], the “Repellency Index” value in the data set on D. reticulatum slugs [1] (0.7% in ethanol) was found to be 60%; in the data set with D. reticulatum slugs [1] (2.7% in ethanol), 97%.
With `CC(C)=CCC/C(C)=C1/CC=C(C)CC1` [γ-bisabolene], in the data set with D. reticulatum slugs [1] (0.7% in ethanol), the “Corrected Mortality” value is reported as 0% and the “Repellency Index” value amounted to 70%.
On to `CC1CCC(C(C)C)C(O)C1` (stereo not shown) [menthol], for which, in [2], the mollusc repellent activity entry was “effective mollusc repellents” and the molluscicidal activity result is “potent molluscicides”.
Regarding `CC(C)=CCC[C@](C)(O)C1CC=C(C)CC1` (stereo partly drawn) [α-bisabolol], the “% Leaf Damage ± SEM” value with garden snail H. aspersa [7] came to 10 ± 0%. Moreover, the “Repellency Index” value in the data set on garden snail H. aspersa [4] (1% in aq. Tween 20 (1%)) came to 90. In addition, the “% Mortality ± SEM” value with garden snail H. aspersa [4] (in vivo) worked out at 0%.
`CC(C)=CCC/C(C)=C/CC/C(C)=C/CO` [trans, trans farnesol]: in the data set on D. reticulatum slugs [1] (0.96% in ethanol), the “Repellency Index” value was 96%. Further, the “Corrected Mortality” value with D. reticulatum slugs [1] (in vivo) is reported as 0%.
`C=C1CC/C=C(\C)CC[C@@H]2[C@@H]1CC2(C)C` [Carophyllene]: in the data set with D. reticulatum slugs [1] (0.96% in ethanol), the “Corrected Mortality” value is on record as 15% and the “Repellency Index” value was determined as 40%.
